Measurements published in patent publication US10072026B2, “Crystalline form of 3-((1R,3s,5S)-3-((7-((5-methyl-1H-pyrazol-3-yl)amino)-1,6-naphthyridin-5-yl)amino)-8-azabicyclo[3.2.1]octan-8-yl)propanenitrile” (priority 2015, dated 2018).
Like-named read-outs stand apart in the source and are kept apart here.

Legend:
[1] = tested on: IL-13 induced STAT6 phosphorylation in BEAS-2B human lung epithelial cells; assay: AlphaScreen cellular JAK potency assay, BEAS-2B; conditions: IL-13 induced STAT6 phosphorylation, BEAS-2B cells
[2] = tested on: IL-4 induced STAT6 phosphorylation in THP-1 human monocytic cells; assay: Cellular JAK potency assay, THP-1
JAK1 = JAK1 (Homo sapiens (Human), UniProt P23458); assay: LanthaScreen JAK biochemical assay (JAK1)
JAK2 = JAK2 (Homo sapiens (Human), UniProt O60674); assay: LanthaScreen JAK biochemical assay (JAK2)
[3] = THP-1 cells, IL-4 induced STAT6 phosphorylation
[4] = IL-4 induced STAT6 phosphorylation, THP-1 cells
[5] = Homo sapiens, THP-1, read-out: THP-1 IL4 pIC50 (converted)
[6] = read-out: JAK 2 (pKi) (converted)
[7] = read-out: JAK 1 (pKi) (converted)

Sequence of JAK2 (O60674 whole entry): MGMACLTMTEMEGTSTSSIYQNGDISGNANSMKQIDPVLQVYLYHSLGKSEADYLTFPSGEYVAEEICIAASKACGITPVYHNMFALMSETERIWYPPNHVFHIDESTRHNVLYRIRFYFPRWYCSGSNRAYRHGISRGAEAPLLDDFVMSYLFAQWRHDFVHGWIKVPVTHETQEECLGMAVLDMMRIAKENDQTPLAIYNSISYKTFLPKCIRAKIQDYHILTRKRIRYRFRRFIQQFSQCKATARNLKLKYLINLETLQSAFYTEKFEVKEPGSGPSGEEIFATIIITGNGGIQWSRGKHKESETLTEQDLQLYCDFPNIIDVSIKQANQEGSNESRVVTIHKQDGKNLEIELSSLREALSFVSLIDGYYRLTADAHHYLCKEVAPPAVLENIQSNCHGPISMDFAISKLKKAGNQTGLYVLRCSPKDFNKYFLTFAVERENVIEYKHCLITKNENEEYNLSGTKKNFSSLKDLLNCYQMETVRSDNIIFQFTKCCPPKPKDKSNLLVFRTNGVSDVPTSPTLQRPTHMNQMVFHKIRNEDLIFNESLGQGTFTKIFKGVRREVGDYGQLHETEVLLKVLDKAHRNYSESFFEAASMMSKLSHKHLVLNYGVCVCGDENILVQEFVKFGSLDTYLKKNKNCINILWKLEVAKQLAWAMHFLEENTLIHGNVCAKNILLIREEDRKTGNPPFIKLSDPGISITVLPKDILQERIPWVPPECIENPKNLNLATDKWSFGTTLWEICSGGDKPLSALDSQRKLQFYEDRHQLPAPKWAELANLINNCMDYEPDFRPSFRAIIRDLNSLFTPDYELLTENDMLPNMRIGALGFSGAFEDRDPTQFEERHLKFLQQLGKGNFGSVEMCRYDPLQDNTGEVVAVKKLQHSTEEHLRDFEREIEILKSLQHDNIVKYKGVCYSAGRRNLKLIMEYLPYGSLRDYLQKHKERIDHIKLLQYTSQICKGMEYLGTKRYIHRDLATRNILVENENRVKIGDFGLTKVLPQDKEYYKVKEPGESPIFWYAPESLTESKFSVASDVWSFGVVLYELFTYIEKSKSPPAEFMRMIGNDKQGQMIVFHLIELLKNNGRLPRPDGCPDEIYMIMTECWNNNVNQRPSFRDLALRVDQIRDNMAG
Sequence of JAK1 (P23458 whole entry): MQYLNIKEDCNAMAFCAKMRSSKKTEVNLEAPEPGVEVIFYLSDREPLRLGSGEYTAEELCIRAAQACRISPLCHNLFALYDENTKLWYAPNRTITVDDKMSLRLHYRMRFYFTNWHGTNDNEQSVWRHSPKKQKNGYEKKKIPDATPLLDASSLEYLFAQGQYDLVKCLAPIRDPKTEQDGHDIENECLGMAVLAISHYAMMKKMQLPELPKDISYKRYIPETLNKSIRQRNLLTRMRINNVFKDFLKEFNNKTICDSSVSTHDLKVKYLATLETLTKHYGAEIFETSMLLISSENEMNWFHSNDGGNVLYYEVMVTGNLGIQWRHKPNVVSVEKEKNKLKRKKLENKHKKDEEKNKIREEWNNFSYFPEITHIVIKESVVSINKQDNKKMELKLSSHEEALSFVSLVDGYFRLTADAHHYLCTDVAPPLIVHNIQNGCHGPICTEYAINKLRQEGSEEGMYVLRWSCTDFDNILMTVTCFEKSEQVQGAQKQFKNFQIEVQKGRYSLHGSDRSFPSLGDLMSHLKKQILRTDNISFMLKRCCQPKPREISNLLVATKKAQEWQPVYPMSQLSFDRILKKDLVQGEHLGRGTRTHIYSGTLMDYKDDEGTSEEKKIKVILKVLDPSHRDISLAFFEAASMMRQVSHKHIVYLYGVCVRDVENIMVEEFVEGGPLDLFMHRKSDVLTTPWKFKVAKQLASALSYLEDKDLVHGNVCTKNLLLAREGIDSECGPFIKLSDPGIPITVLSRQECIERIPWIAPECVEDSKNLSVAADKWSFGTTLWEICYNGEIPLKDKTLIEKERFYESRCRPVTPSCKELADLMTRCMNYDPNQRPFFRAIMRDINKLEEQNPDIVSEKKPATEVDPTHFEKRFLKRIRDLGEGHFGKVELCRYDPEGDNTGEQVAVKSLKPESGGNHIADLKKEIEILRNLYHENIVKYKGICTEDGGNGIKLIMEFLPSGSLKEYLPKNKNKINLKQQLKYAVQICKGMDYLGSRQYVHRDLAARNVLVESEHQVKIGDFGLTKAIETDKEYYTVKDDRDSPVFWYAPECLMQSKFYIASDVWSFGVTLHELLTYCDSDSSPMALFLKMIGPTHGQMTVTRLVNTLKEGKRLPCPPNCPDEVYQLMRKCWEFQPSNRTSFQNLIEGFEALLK

Row | Compound | THP-1 IL4 pIC50 [2, 3] | JAK 1 (pKi) (JAK1) | JAK 2 (pKi) (JAK2) | THP-1 IL4 pIC50 [2, 4] | other results
1 | Cc1cc(Nc2cc3ncccc3c(N[C@@H]3C[C@H]4CCC[C@@H](C3)N4Cc3ccc(C#N)nc3)n2)n[nH]1 [Example 1-54] | – | – | – | – | BEAS2B pIC50 [1]: B (B represents a pEC50 value between 6.7 and 7.5 (EC50 between 200 nM and 32 nM))
2 | COC(=O)c1cnc2cc(Nc3cc(C)[nH]n3)nc(N[C@@H]3C[C@H]4CC[C@@H](C3)N4C[C@H]3CCC(=O)O3)c2c1 [Example 6-46] | C (C represents a pEC50 value<6.7 (EC50>200 nM)) | B (B represents a pKi value between 9 and 10 (Ki between 1 nM and 0.1 nM)) | B (B represents a pKi value between 9 and 10 (Ki between 1 nM and 0.1 nM)) | – | –
3 | C=CCOC(=O)N1[C@@H]2CCC[C@H]1C[C@H](Nc1nc(Nc3cc(C)[nH]n3)cc3ncccc13)C2 [Example 3-8] | – | B (B represents a pKi value between 9 and 10 (Ki between 1 nM and 0.1 nM)) | B (B represents a pKi value between 9 and 10 (Ki between 1 nM and 0.1 nM)) | A (A represents a pEC50 value≥7.5 (EC50≤32 nM)) | –
4 | COc1cnc2cc(Nc3cc(C)[nH]n3)nc(N[C@@H]3C[C@H]4CC[C@@H](C3)N4CCCC#N)c2c1 [Example 6-12] | B (B represents a pEC50 value between 6.7 and 7.5 (EC50 between 200 nM and 32 nM)) | B (B represents a pKi value between 9 and 10 (Ki between 1 nM and 0.1 nM)) | B (B represents a pKi value between 9 and 10 (Ki between 1 nM and 0.1 nM)) | – | –
5 | Cc1cc(Nc2cc3ncccc3c(N[C@@H]3C[C@H]4CC[C@@H](C3)N4C(=O)c3cccnc3)n2)n[nH]1 [Example 2-14] | – | – | – | – | IC50 [2, 5]: > 200 nM; Ki (JAK1): 0.1 to 1 nM; Ki (JAK2; [6]): 0.1 to 1 nM
6 | Cc1cc(Nc2cc3ncc(S(C)(=O)=O)cc3c(N[C@@H]3C[C@H]4CC[C@@H](C3)N4CCC#N)n2)n[nH]1 [Example 6-50] | C (C represents a pEC50 value<6.7 (EC50>200 nM)) | A (A represents a pKi value≥10 (Ki≤0.1 nM)) | A (A represents a pKi value≥10 (Ki≤0.1 nM)) | – | –
7 | Cc1cc(Nc2cc3ncccc3c(N[C@@H]3C[C@H]4CCC[C@@H](C3)N4Cc3ccncc3)n2)n[nH]1 [Example 1-48] | – | A (A represents a pKi value≥10 (Ki≤0.1 nM)) | A (A represents a pKi value≥10 (Ki≤0.1 nM)) | B (B represents a pEC50 value between 6.7 and 7.5 (EC50 between 200 nM and 32 nM)) | –
8 | Cc1cnc2c(F)c(Nc3cc(C)[nH]n3)nc(N[C@@H]3C[C@H]4CC[C@@H](C3)N4S(C)(=O)=O)c2c1 [Example 8-17] | B (B represents a pEC50 value between 6.7 and 7.5 (EC50 between 200 nM and 32 nM)) | A (A represents a pKi value≥10 (Ki≤0.1 nM)) | A (A represents a pKi value≥10 (Ki≤0.1 nM)) | – | –
9 | Cc1cc(Nc2cc3ncc(S(C)(=O)=O)cc3c(N[C@@H]3C[C@H]4CC[C@@H](C3)N4CCF)n2)n[nH]1 [Example 6-54] | C (C represents a pEC50 value<6.7 (EC50>200 nM)) | B (B represents a pKi value between 9 and 10 (Ki between 1 nM and 0.1 nM)) | B (B represents a pKi value between 9 and 10 (Ki between 1 nM and 0.1 nM)) | – | –
10 | C=CCOC(=O)N1[C@@H]2CC[C@H]1C[C@H](Nc1nc(Nc3cc(C)[nH]n3)cc3ncc(C(=O)OC)cc13)C2 [Example 6-40] | A (A represents a pEC50 value≥7.5 (EC50≤32 nM)) | B (B represents a pKi value between 9 and 10 (Ki between 1 nM and 0.1 nM)) | B (B represents a pKi value between 9 and 10 (Ki between 1 nM and 0.1 nM)) | – | –
11 | Cc1cc(Nc2cc3ncccc3c(N[C@@H]3C[C@H]4CC[C@@H](C3)N4C(=O)Cc3ccccc3)n2)n[nH]1 [Example 2-11] | – | B (B represents a pKi value between 9 and 10 (Ki between 1 nM and 0.1 nM)) | B (B represents a pKi value between 9 and 10 (Ki between 1 nM and 0.1 nM)) | B (B represents a pEC50 value between 6.7 and 7.5 (EC50 between 200 nM and 32 nM)) | –
12 | Cc1cc(Nc2cc3ncccc3c(N[C@@H]3C[C@H]4CC[C@@H](C3)N4C(=O)c3ccncc3)n2)n[nH]1 [Example 2-13] | – | – | – | – | IC50 [2, 5]: 31.6 to 200 nM; Ki (JAK1; [7]): 0.1 to 1 nM; Ki (JAK2; [6]): 0.1 to 1 nM
13 | COC(=O)c1cnc2cc(Nc3cc(C)[nH]n3)nc(N[C@@H]3C[C@H]4CC[C@@H](C3)N4CCC(F)(F)F)c2c1 [Example 6-45] | B (B represents a pEC50 value between 6.7 and 7.5 (EC50 between 200 nM and 32 nM)) | B (B represents a pKi value between 9 and 10 (Ki between 1 nM and 0.1 nM)) | B (B represents a pKi value between 9 and 10 (Ki between 1 nM and 0.1 nM)) | – | –
14 | Cc1cc(Nc2cc3nc(CS(C)(=O)=O)ccc3c(N[C@@H]3C[C@H]4CC[C@@H](C3)N4CCCF)n2)n[nH]1 [Example 5-42] | – | B (B represents a pKi value between 9 and 10 (Ki between 1 nM and 0.1 nM)) | B (B represents a pKi value between 9 and 10 (Ki between 1 nM and 0.1 nM)) | C (C represents a pEC50 value<6.7 (EC50>200 nM)) | –
15 | COc1ccnc2cc(Nc3cc(C)[nH]n3)nc(N[C@@H]3C[C@H]4CC[C@@H](C3)N4CC(F)F)c12 [Example 7-8] | B (B represents a pEC50 value between 6.7 and 7.5 (EC50 between 200 nM and 32 nM)) | B (B represents a pKi value between 9 and 10 (Ki between 1 nM and 0.1 nM)) | B (B represents a pKi value between 9 and 10 (Ki between 1 nM and 0.1 nM)) | – | –
16 | Cc1cc(Nc2cc3ncccc3c(N[C@@H]3C[C@H]4CC[C@@H](C3)N4CCC(F)(F)F)n2)n[nH]1 [Example 1-10] | – | B (B represents a pKi value between 9 and 10 (Ki between 1 nM and 0.1 nM)) | B (B represents a pKi value between 9 and 10 (Ki between 1 nM and 0.1 nM)) | C (C represents a pEC50 value<6.7 (EC50>200 nM)) | –
17 | Cc1cc(Nc2cc3ncccc3c(N[C@@H]3C[C@H]4CC[C@@H](C3)N4C(=O)OC(C)C)n2)n[nH]1 [Example 3-2] | – | – | – | – | IC50 [2, 5]: < 31.6 nM; Ki (JAK1): 0.1 to 1 nM; Ki (JAK2): 0.1 to 1 nM
18 | Cc1cnc2c(F)c(Nc3cc(C)[nH]n3)nc(N[C@@H]3C[C@H]4CC[C@@H](C3)N4S(=O)(=O)N3CC(C#N)C3)c2c1 [Example 8-19] | C (C represents a pEC50 value<6.7 (EC50>200 nM)) | B (B represents a pKi value between 9 and 10 (Ki between 1 nM and 0.1 nM)) | B (B represents a pKi value between 9 and 10 (Ki between 1 nM and 0.1 nM)) | – | –
19 | Cc1cc(Nc2cc3ncccc3c(N[C@@H]3C[C@H]4CCC[C@@H](C3)N4C(=O)OCC(C)C)n2)n[nH]1 [Example 3-7] | – | B (B represents a pKi value between 9 and 10 (Ki between 1 nM and 0.1 nM)) | B (B represents a pKi value between 9 and 10 (Ki between 1 nM and 0.1 nM)) | B (B represents a pEC50 value between 6.7 and 7.5 (EC50 between 200 nM and 32 nM)) | –
20 | CNC(=O)CN1[C@@H]2CC[C@H]1C[C@H](Nc1nc(Nc3cc(C)[nH]n3)cc3ncccc13)C2 [Example 1-7] | – | B (B represents a pKi value between 9 and 10 (Ki between 1 nM and 0.1 nM)) | B (B represents a pKi value between 9 and 10 (Ki between 1 nM and 0.1 nM)) | C (C represents a pEC50 value<6.7 (EC50>200 nM)) | –
21 | Cc1cc(Nc2cc3nc(CN4CCC(F)(F)CC4)ccc3c(N[C@@H]3C[C@H]4CC[C@@H](C3)N4S(=O)(=O)c3cncc(F)c3)n2)n[nH]1 [Example 5-31] | – | – | – | – | IC50 [2, 5]: 31.6 to 200 nM; Ki (JAK1): 0.1 to 1 nM; Ki (JAK2; [6]): 0.1 to 1 nM
22 | Cc1cc(Nc2cc3ncccc3c(N[C@@H]3C[C@H]4CC[C@@H](C3)N4C(=O)C3(C)CCCC3)n2)n[nH]1 [Example 2-10] | – | – | – | – | IC50 [2, 5]: 31.6 to 200 nM; Ki (JAK1): 0.1 to 1 nM; Ki (JAK2; [6]): 0.1 to 1 nM
23 | Cc1cc(Nc2cc3ncccc3c(N[C@@H]3C[C@H]4CC[C@@H](C3)N4CC3CCOCC3)n2)n[nH]1 [Example 1-20] | – | B (B represents a pKi value between 9 and 10 (Ki between 1 nM and 0.1 nM)) | B (B represents a pKi value between 9 and 10 (Ki between 1 nM and 0.1 nM)) | B (B represents a pEC50 value between 6.7 and 7.5 (EC50 between 200 nM and 32 nM)) | –
24 | COC(=O)c1cnc2cc(Nc3cc(C)[nH]n3)nc(N[C@@H]3C[C@H]4CC[C@@H](C3)N4CCF)c2c1 [Example 6-43] | B (B represents a pEC50 value between 6.7 and 7.5 (EC50 between 200 nM and 32 nM)) | B (B represents a pKi value between 9 and 10 (Ki between 1 nM and 0.1 nM)) | B (B represents a pKi value between 9 and 10 (Ki between 1 nM and 0.1 nM)) | – | –
25 | Cc1cc(Nc2cc3ncccc3c(N[C@@H]3C[C@H]4CCC[C@@H](C3)N4C3CCCOC3=O)n2)n[nH]1 (stereo partly shown) [Example 1-53] | – | B (B represents a pKi value between 9 and 10 (Ki between 1 nM and 0.1 nM)) | B (B represents a pKi value between 9 and 10 (Ki between 1 nM and 0.1 nM)) | B (B represents a pEC50 value between 6.7 and 7.5 (EC50 between 200 nM and 32 nM)) | –
26 | Cc1cc(Nc2cc3ncccc3c(N[C@@H]3C[C@H]4CC[C@@H](C3)N4S(=O)(=O)C3CCCC3)n2)n[nH]1 [Example 4-5] | – | – | – | – | IC50 [2, 5]: < 31.6 nM; Ki (JAK1; [7]): 0.1 to 1 nM; Ki (JAK2): 0.1 to 1 nM
27 | CCS(=O)(=O)N1[C@@H]2CC[C@H]1C[C@H](Nc1nc(Nc3cc(C)[nH]n3)c(F)c3ncccc13)C2 [Example 8-3] | A (A represents a pEC50 value≥7.5 (EC50≤32 nM)) | B (B represents a pKi value between 9 and 10 (Ki between 1 nM and 0.1 nM)) | B (B represents a pKi value between 9 and 10 (Ki between 1 nM and 0.1 nM)) | – | –
28 | Cc1cc(Nc2cc3ncccc3c(N[C@@H]3C[C@H]4CC[C@@H](C3)N4C(=O)c3ccccc3)n2)n[nH]1 [Example 2-12] | – | – | – | – | IC50 [2, 5]: 31.6 to 200 nM; Ki (JAK1; [7]): 0.1 to 1 nM; Ki (JAK2; [6]): 0.1 to 1 nM
29 | COC(=O)c1cnc2cc(Nc3cc(C)[nH]n3)nc(N[C@@H]3C[C@H]4CC[C@@H](C3)N4CCC#N)c2c1 [Example 6-32] | A (A represents a pEC50 value≥7.5 (EC50≤32 nM)) | A (A represents a pKi value≥10 (Ki≤0.1 nM)) | A (A represents a pKi value≥10 (Ki≤0.1 nM)) | – | –
